What follows are molecules tested against mGluR5 (Homo sapiens, UniProt P41594) (assay: inhibition of the glutamate induced elevation of intracellular Ca2+ concentration). Details: read-out: mGluR5 Activity inh. at 10 μM [%].
mGluR5, sequence (P41594 21-1180 isoform P41594-2 limits assumed): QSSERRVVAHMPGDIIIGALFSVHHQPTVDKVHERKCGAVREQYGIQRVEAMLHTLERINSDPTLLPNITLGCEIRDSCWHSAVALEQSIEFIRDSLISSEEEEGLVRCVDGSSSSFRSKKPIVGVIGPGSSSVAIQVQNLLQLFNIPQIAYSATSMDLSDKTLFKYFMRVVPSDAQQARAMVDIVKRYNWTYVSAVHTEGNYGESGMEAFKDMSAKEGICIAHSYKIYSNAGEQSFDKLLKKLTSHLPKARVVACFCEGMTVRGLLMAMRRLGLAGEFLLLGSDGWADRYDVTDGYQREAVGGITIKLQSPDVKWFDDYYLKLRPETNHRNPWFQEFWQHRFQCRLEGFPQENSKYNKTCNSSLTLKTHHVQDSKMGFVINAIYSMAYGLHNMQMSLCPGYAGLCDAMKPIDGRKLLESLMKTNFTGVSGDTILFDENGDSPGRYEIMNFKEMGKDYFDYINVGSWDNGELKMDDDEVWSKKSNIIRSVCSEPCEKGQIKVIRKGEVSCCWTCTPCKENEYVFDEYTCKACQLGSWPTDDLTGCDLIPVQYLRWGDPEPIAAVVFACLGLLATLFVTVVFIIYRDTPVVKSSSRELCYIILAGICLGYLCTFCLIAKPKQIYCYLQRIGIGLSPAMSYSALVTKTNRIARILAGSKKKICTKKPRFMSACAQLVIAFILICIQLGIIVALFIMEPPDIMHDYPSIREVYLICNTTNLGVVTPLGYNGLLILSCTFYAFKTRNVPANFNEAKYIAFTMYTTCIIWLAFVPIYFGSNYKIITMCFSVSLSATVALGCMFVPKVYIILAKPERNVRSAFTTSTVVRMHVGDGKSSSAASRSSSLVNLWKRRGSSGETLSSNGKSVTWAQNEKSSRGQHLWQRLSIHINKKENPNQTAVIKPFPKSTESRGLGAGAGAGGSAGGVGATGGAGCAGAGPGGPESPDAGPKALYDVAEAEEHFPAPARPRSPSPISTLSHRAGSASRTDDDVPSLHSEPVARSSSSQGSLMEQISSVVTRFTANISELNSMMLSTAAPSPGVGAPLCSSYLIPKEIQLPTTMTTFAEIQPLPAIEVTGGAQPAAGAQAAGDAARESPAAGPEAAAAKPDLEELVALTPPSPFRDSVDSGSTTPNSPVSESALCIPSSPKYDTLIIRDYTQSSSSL
Text: This can be determined in vitro for example at recombinant human metabotropic glutamate receptors, especially PLC-coupled subtypes thereof such as mGluR5, using different procedures like, for example, measurement of the inhibition of the agonist induced elevation of intracellular Ca^2+ concentration in accordance with L. P. Daggett et al., Neuropharm.

| SMILES | inhibition at 10 µM [%] |
| --- | --- |
| COc1cc(C(=O)N2CCCCC2)cnc1Nc1ccc(C)nc1 [Compound 6.4, [5-Methoxy-6-(6-methyl-pyridin-3-ylamino)-pyridin-3-yl]-piperidin-1-yl-methanone] | 98 |
| CCOc1cc(C(=O)N2CCCCCC2)cnc1Nc1ccc(Cl)cc1 [Compound 6.5, Azepan-1-yl-[6-(4-chloro-phenylamino)-5-ethoxy-pyridin-3-yl]-methanone] | 33 |
| CCOc1cc(C(=O)N2CCCCCC2)cnc1Nc1ccc(C)nc1 [Compound 6.6, Azepan-1-yl-[5-ethoxy-6-(6-methyl-pyridin-3-ylamino)-pyridin-3-yl]-methanone] | 54 |
| CCOc1cc(C(=O)N2CCCCC2)cnc1Nc1ccc(C)nc1 [Compound 6.7, [5-Ethoxy-6-(6-methyl-pyridin-3-ylamino)-pyridin-3-yl]-piperidin-1-yl-methanone] | 35 |
| CC1CCCN(C(=O)c2cnc(Nc3ccc(Cl)nc3)c(Cl)c2)C1 (centres unmarked) [Compound 7.1, [5-Chloro-6-(6-chloro-pyridin-3-ylamino)-pyridin-3-yl]-(3-methyl-piperidin-1-yl)-methanone] | 98 |
| O=C(c1ccc(Nc2ccc(Cl)cc2)nn1)N1CCCCC1 [Compound 8.1, [6-(4-Chloro-phenylamino)-pyridazin-3-yl]-piperidin-1-yl-methanone] | 91 |
| CC1(C)CCCN(C(=O)c2ccc(Nc3ccc(Cl)cc3)nn2)C1 [Compound 8.3, [6-(4-Chloro-phenylamino)-pyridazin-3-yl]-(3,3-dimethyl-piperidin-1-yl)-methanone] | 82 |
| O=C(c1ccc(Nc2ccc(Cl)cc2)nn1)N1CCc2ccccc2C1 [Compound 8.4, [6-(4-Chloro-phenylamino)-pyridazin-3-yl]-(3,4-dihydro-1H-isoquinolin-2-yl)-methanone] | 89 |
| CC1CCN(C(=O)c2ccc(Nc3ccc(Cl)cc3)nn2)CC1 [Compound 8.5, [6-(4-Chloro-phenylamino)-pyridazin-3-yl]-(4-methyl-piperidin-1-yl)-methanone] | 86 |
| Cc1ccc(Nc2ncc(C(=O)N3CCCCC3)cc2C)cn1 [Compound 9.1, [5-Methyl-6-(6-methyl-pyridin-3-ylamino)-pyridin-3-yl]-piperidin-1-yl-methanone] | 97 |
| Cc1ccc(Nc2ncc(C(=O)N3CCCCC3)cc2F)cn1 [Compound 9.2, [5-Fluoro-6-(6-methyl-pyridin-3-ylamino)-pyridin-3-yl]-piperidin-1-yl-methanone] | 99 |

From patent US20090005363A1, “Organic Compounds” (priority 2005, published 2009)
